Article PMC12208134, “Structure-activity relationships of 1,5-dihydro-2H-benzo[b][1,4]diazepine-2,4(3H)-diones as inhibitors of Trypanosoma cruzi” (RSC medicinal chemistry, 2025)
≈ marks a conversion by molar mass, not a printed value. Where “and” joins values, the source holds several entries; their conditions need not be identical. Equal entries are not always repeated. Where two headings read alike, the source gives them in different places.

Columns and labels:
T. cruzi = test system: T. cruzi; set-up: method as in PMID 24827034, PMID 29352704; conditions: clinical trials; cited from earlier work
T. cruzi trypomastigotes [1] = test system: T. cruzi trypomastigotes; set-up: method as in PMID 30001347; conditions: cited from earlier work
intracellular T. cruzi = assay: T. cruzi washout assay; assay type: cell-based, Trypanosoma cruzi; conditions: 25 x IC50 for 16 days, infected Vero cells
Protocol: For any hits identified and successfully triaged, the initial focus of hit-expansion is to identify compounds with a suitable profile to run in a washout assay.,[21] In this assay, intracellular T. cruzi are treated with high doses of compounds for an extended duration (25x IC50 for 8 – 16 days), followed by compound washout and assessment of parasite relapse over 60 days to assess ability to clear all parasites, including any persisters. […] Compound series with a profile equal to or better than benznidazole can then be progressed to an in vivo efficacy model of chronic Chagas disease with a high probability of success.
At this stage, we were keen to examine our options for progression into the T. cruzi washout assay, [12],[21] and decided to move forward with 2, 14 and 16 to give coverage across both chemotypes. […] After this dosing period, the compound was washed off the infected cells, and the host cell monolayer was monitored for egressed parasites. The first day egressed parasites were detected post washout was noted down as the relapse day. In this assay, posaconazole, which is known to be ineffective in the clinic, relapsed after 10 days and benznidazole, used as the bench-mark clinical compound, relapsed after 31 / 35 days (2 replicates). We were therefore looking for compounds that relapsed at an equivalent time to benznidazole, or later, to be considered worth pursuing further.
Intracellular T. cruzi washout assays were carried out with the Silvio X10/7 strain using the protocol previously described. ^1

[2] = Human liver microsomal intrinsic clearance; assay type: in vitro ADME
[3] = test system: intracellular T. cruzi amastigotes; assay: Rate-of-kill assay against intracellular amastigotes; assay type: cell-based, Trypanosoma cruzi
Protocol: (§1) T. cruzi intracellular potency and rate-of-kill assay (high content imaging) ^1
(§2) Silvio X10/7 T. cruzi trypomastigotes were incubated at 37°C 5% CO2 with 1.6×10^7 Vero cells overnight at MOI10 in MEM media supplemented with 10% foetal calf serum (FCS). Extracellular parasites were removed by aspirating cell culture supernatant, and washing Vero monolayer with 10 ml serum-free MEM three times. Vero cells were then harvested by trypsinization and dispensed at 2×10^3 per well (50 μl in MEM/ 1% FCS) into 384 well plates pre-stamped with compounds in DMSO using automated washer/ dispenser EL406 and liquid handling software (Biotek). Plates were then incubated at 37°C in 5% CO2 for 96 h. For rate-of-kill determination, plates were incubated for 24h, 48h, 72h and 96h.
Plates were subsequently fixed with 4% formaldehyde for 20 min, permeabilised and stained with 5 μgml^-1 Hoechst 33342/ 0.1% Triton/ PBS Thimerosal 20 min. […] Images were analysed with an algorithm generated in Columbus (PerkinElmer) to segment Vero cell nuclei, Vero cell cytoplasm and parasite nuclei/ kinetoplasts, reporting number of amastigotes per Vero cell, percent infected Vero cells and total number of Vero cells. Compound potencies against T. cruzi parasites were calculated in IDBS Activitybase using percent infected Vero cells and Vero toxicity curves generated using number of host cells. […]

[4] = ChromLogD pH7.4 (chromatographic hydrophobicity index), PFI, LLE; conditions: for PFI: ChromLogDpH7.4 + no. aromatic rings; for chromatographic logD: pH 7.4
Description: [23] Alongside PFI, LLE (ligand lipophilic efficiency, T. cruzi pIC50 - ChromLogDpH7.4) was also monitored to identify changes where the impact on potency was not driven by increasing lipophilicity.

[5] = Kinetic aqueous solubility by CAD; assay type: physicochemical; conditions: kinetic from dmso stock
[6] = test system: intracellular T. cruzi amastigotes; assay: T. cruzi intracellular potency assay (high content imaging); assay type: cell-based, Trypanosoma cruzi; set-up: key to Max Effect (T. cruzi): % inhibition; 0% = DMSO control, 100% = 16 μM nifurtimox control; conditions: for Emax / IC50: Trypanosoma cruzi; for Emax / Hill slope (T. cruzi) / Max Effect (T. cruzi) / pEC50 (T. cruzi): individual replicate; for Emax: read-out: Max Effect (T. cruzi); for IC50: intracellular amastigotes in Vero cells, 96 h, mean of N ≥ 3, read-out: T. cruzi pIC50 (converted)
Protocol: as §1, §2
(§3) Plates were subsequently fixed with 4% formaldehyde for 20 min, permeabilised and stained with 5 μgml^-1 Hoechst 33342/ 0.1% Triton/ PBS Thimerosal 20 min. Automated imaging was performed by an Operetta high content imaging system using 20x objective (PerkinElmer). Images were analysed with an algorithm generated in Columbus (PerkinElmer) to segment Vero cell nuclei, Vero cell cytoplasm and parasite nuclei/ kinetoplasts, reporting number of amastigotes per Vero cell, percent infected Vero cells and total number of Vero cells. Compound potencies against T. cruzi parasites were calculated in IDBS Activitybase using percent infected Vero cells and Vero toxicity curves generated using number of host cells. All data was normalised to percent inhibition based on the raw data values for the 100% effect control (16 μM nifurtimox) and the 0% effect control (DMSO) on each plate at each time point. Curve fitting was carried out using a four-parameter equation as previously described. ^2 For rate-of-kill experiments the percent infected cells at each compound concentration was plotted against time.

host Vero cell = assay: Vero host cell toxicity in the intracellular T. cruzi assay; assay type: cell-based; set-up: key to Max Effect (Vero): % inhibition; 0% = DMSO control, 100% = 16 μM nifurtimox control; conditions: for EC50 / IC50: Chlorocebus sabaeus; for EC50: Vero; for IC50: host Vero cell, read-out: Vero pIC50 (converted)
Protocol: as §1, §2, §3

[7] = Mouse liver microsomal intrinsic clearance; assay type: in vitro ADME
Tc-MetRS = Tc-MetRS (Trypanosoma cruzi, UniProt Q4D6H2); assay: T. cruzi aminoacyl tRNA synthetase enzyme assay (TcMetRS); assay type: biochemical
Protocol: T. cruzi aminoacyl tRNA synthetase enzyme assays
Assays were run for 2 hours.

T. cruzi trypomastigotes [8] = assay: T. cruzi trypomastigote assay; assay type: cell-based, Trypanosoma cruzi
Protocol: T. cruzi trypomastigote assay
Trypomastigote assays were carried out with T. cruzi Silvio X10/7 trypomastigotes using the protocol previously described. ^1

T. cruzi proteasome = T. cruzi proteasome (Trypanosoma cruzi, UniProt V5BU39)
Protocol: T. cruzi proteasome enzyme assay
The pIC50 of compound 1 was measured in a T. cruzi proteasome assay (N = 2 experimental replicates, each with n = 3 technical replicates) as previously described, using a recombinantly expressed Δβ1Δβ2 mutant proteasome (measuring chymotrypsin site activity only). ^4

Tc-HisRS = Tc-HisRS (Trypanosoma cruzi, UniProt Q4DA54); assay: biochemical
Protocol: TcHisRS assay wells contained TcHisRS assay buffer (30 mM Tris; pH 8, 140 mM NaCl, 40 mM MgCl2, 30 mM KCl, 0.01% (v/v) Brij and 1 mM DTT) plus 50 nM TcHisRS, 8 μM ATP, 5 μM L-histidine and 1 U/mL pyrophosphatase. Assays were run for 2 hours.

Tc-CYP51 = Tc-CYP51 (Trypanosoma cruzi, UniProt Q7Z1V1); assay: T. cruzi sterol 14α-demethylase (CYP51) enzyme assay; assay type: biochemical
Protocol: T. cruzi sterol 14α-demethylase (CYP51) enzyme assay
Potency against T. cruzi CYP51 was determined using a previously described fluorescence assay. Average potency for compound 1 was determined with three experimental replicates. Potencies in Fig.3 are from single experimental replicates. ^5

T. cruzi epimastigotes = assay: T. cruzi oxygen consumption assay; assay type: cell-based; conditions: Trypanosoma cruzi, read-out: T. cruzi oxygen consumption pIC50 (converted)
Protocol: T. cruzi oxygen consumption assay
Oxygen consumption was measured using T. cruzi epimastigotes and the MitoXpress Xtra Oxygen Consumption Assay (Agilent) as previously reported. ^6

Sequence of Tc-CYP51 (Q7Z1V1 whole entry): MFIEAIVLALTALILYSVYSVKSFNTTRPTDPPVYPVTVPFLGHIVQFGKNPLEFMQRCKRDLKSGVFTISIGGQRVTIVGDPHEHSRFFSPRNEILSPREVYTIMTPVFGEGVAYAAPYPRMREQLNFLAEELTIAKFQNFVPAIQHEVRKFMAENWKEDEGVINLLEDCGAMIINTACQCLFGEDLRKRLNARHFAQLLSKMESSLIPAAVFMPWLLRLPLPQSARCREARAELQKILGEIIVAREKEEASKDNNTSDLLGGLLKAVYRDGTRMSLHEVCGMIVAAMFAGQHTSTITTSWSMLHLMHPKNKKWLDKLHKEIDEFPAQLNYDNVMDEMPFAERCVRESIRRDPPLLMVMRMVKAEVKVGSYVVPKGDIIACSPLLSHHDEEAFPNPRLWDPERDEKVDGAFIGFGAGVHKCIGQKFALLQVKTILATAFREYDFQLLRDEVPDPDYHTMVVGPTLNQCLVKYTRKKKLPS
Sequence of Tc-MetRS (Q4D6H2 entry or part of it): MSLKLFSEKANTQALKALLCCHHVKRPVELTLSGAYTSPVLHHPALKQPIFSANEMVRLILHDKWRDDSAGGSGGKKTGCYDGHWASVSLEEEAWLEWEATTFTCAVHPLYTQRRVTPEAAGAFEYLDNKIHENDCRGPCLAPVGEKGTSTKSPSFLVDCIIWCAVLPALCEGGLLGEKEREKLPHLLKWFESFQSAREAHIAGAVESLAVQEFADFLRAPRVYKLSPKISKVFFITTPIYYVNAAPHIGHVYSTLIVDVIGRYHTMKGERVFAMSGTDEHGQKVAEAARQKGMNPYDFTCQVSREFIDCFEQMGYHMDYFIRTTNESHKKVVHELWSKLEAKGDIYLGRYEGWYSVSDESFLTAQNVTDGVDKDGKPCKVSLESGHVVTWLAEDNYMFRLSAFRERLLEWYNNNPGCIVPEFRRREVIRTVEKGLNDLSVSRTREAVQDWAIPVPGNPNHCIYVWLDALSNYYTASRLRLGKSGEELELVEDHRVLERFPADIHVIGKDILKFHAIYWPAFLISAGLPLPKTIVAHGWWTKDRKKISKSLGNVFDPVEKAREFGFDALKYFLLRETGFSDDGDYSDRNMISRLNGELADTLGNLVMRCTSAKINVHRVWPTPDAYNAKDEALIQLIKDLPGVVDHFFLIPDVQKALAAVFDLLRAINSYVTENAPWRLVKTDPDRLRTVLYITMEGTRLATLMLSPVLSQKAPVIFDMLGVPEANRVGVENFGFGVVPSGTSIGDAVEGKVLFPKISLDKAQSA
Sequence of Tc-HisRS (Q4DA54 entry or part of it): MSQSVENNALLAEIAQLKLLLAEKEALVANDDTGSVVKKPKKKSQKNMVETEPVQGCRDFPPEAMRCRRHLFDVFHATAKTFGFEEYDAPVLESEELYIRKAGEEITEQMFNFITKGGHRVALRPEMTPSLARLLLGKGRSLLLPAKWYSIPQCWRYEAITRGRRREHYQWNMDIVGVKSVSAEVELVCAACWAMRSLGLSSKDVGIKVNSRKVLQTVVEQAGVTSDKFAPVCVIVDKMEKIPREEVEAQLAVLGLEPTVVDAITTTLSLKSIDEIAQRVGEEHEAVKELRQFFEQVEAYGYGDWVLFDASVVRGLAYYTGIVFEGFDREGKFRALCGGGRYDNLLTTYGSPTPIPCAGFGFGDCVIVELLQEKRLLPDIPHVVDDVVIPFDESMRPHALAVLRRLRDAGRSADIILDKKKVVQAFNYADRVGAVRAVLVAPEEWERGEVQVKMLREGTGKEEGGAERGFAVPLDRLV

CC[C@@H]([C@H](C)O)n1ncn(-c2ccc(N3CCN(c4ccc(OC[C@@H]5CO[C@@](Cn6cncn6)(c6ccc(F)cc6F)C5)cc4)CC3)cc2)c1=O [posaconazole]
treatment failures in patients (T. cruzi): 70 – 90% | activity against trypomastigotes (T. cruzi trypomastigotes [1]): only very weakly active | relapse day post washout (intracellular T. cruzi): 10 days

Cc1ccc(NC(=O)NC2C(=O)Nc3ccccc3N(c3ccccc3)C2=O)cc1 (stereo not drawn) [Compound 1, 1-(2,4-dioxo-1-phenyl-2,3,4,5-tetrahydro-1H-benzo[b][1,4]diazepin-3-yl)-3-(p-tolyl)urea]
HLM CLi ([2]; human liver microsomes): <0.4 mL/min/g | Rate-of-Kill: cidal activity within [3]: Cidal activity within 96 hours ^f | PFI [4]: 7.6 | chromatographic logD [4]: 4.6 | solubility ([5]; kinetic, CAD, read-out: Aqueous solubility): 35 µM (≈ 14 µg/mL) | Emax [6]: 84% | IC50 [6]: 1 µM | Hill slope (T. cruzi) [6]: 2.7 and 4.5 and 6.2 and 2.8 and 1.2 and 2.0 and 4.2 | Max Effect (T. cruzi) [6]: 87 and 88 and 90 and 83 | pEC50 (T. cruzi) [6]: 5.8 and 6.2 and 6.1 and 6.0 | EC50 (host Vero cell; individual replicate): > 50.1 µM | IC50 (host Vero cell): > 50.1 µM | Max Effect (Vero) (host Vero cell; individual replicate): 13 and 1.41 and 11 and 15 and 2.25 and -0.282 | MLM CLi ([7]; mouse liver microsomes): 0.8 mL/min/g | IC50 (Tc-MetRS): > 100 µM | Emax (T. cruzi trypomastigotes [8]; Trypanosoma cruzi, individual replicate, read-out: Tc-Trypo Max Effect): 77% | IC50 (T. cruzi trypomastigotes [8]; Trypanosoma cruzi, read-out: T. cruzi trypomastigote pIC50 (converted)): 0.251 µM | Tc-Trypo Hill (T. cruzi trypomastigotes [8]; individual replicate): 0.9 and 1.4 and 1.2 and 1.3 | Tc-Trypo Max Effect (T. cruzi trypomastigotes [8]; individual replicate): 79 | Tc-Trypo pEC50 (T. cruzi trypomastigotes [8]; individual replicate): 7.2 and 7.0 and 6.3 and 6.4 | Tc Proteasome Hill (T. cruzi proteasome; individual replicate): 1.1 and 0.9 | Tc Proteasome Max Effect (T. cruzi proteasome; individual replicate): 62 and 68 | Tc Proteasome pIC50 (T. cruzi proteasome; individual replicate): 4.0 and 4.2 | Tc-proteasome pIC50 (T. cruzi proteasome; Δβ1Δβ2 mutant proteasome, chymotrypsin site): 4.1 | IC50 (Tc-HisRS): > 100 µM | IC50 (Tc-CYP51; average of three experimental replicates, read-out: Tc-CYP51 pIC50 (converted)): 15.8 µM | Tc CYP51 Hill (Tc-CYP51; individual replicate): 1.3 and 1.1 and 1.4 | Tc CYP51 Max Effect (Tc-CYP51; individual replicate): 83 and 84 | Emax (Tc-CYP51; individual replicate, read-out: Tc CYP51 Max Effect): 85% | IC50 (Tc-CYP51; individual replicate, read-out: Tc CYP51 pIC50 (converted)): 6.31 µM and 25.1 µM | fold more potent against the parasites than against Tc-CYP51 (Tc-CYP51; urea series): 10 fold | IC50 (T. cruzi epimastigotes): > 50.1 µM

C[C@@H](c1nc(-c2ccc(C#N)cc2)cs1)[C@@](Cn1cncn1)(OCOP(=O)(O)O)c1ccc(F)cc1F [fosravuconazole]
treatment failures in patients (T. cruzi): 70 – 90%

CC(C)N(C(=O)CN1C(=O)C(N)C(=O)N(c2ccccc2)c2ccccc21)c1ccccc1 (racemic) [Compound 14, 2-(3-amino-2,4-dioxo-5-phenyl-2,3,4,5-tetrahydro-1H-benzo[b][1,4]diazepin-1-yl)-N-isopropyl-N-phenylacetamide]
HLM CLi ([2]; human, microsomes): <0.4 mL/min/g | PFI [4]: 8.0 | chromatographic logD [4]: 5 | solubility [5]: > 500 µM | relapse day post washout (intracellular T. cruzi): 6 days | Emax [6]: 89% | IC50 [6]: 0.2 µM | Hill slope (T. cruzi) [6]: 4.0 and 12.9 and 3.7 and 29.0 and 4.4 and 2.2 and 5.2 | Max Effect (T. cruzi) [6]: 87 and 86 and 88 and 93 and 92 and 82 | pEC50 (T. cruzi) [6]: 6.6 and 6.8 and 7.0 and 6.7 | EC50 (host Vero cell; individual replicate): > 50.1 µM | IC50 (host Vero cell): > 50.1 µM | Max Effect (Vero) (host Vero cell; individual replicate): -6.63 and 8 and -0.0425 and 13 and 41 and 1.19 and 11 | pEC50 (Vero) (host Vero cell; individual replicate): < 4.3 | MLM CLi ([7]; mouse, microsomes): 3.4 mL/min/g
